Molecules are shown by their SMILES.

The source of these data is patent publication US11932624B2, “MDM2 degraders and uses thereof” (Kymera Therapeutics, Inc., priority 2020, dated 2024).

The first experiment concerns RS411 cells. The experiment is described as follows: Cell Viability CTG Assay (CellTiter Glo) in RS411 cells. The format is cell-based. Particulars: Homo sapiens, RS4-11, 24 h, duration 1 day. Summed up:
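Read-out was CellTiter Glo luminescence, taken after 10 min at RT, following 1-4 days of incubation at 37 °C, 5% CO2. Cells were plated at 1000 per well with an 11-point, 3-fold series starting at 10 μM final in 0.2% DMSO. IC50 values are given as letter-code ranges.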
`COc1ccc2c(c1C1CCN(C[C@H]3CC[C@H](NC(=O)[C@@H]4NC5(CCCCC5)[C@@]5(C(=O)Nc6cc(Cl)ccc65)[C@H]4c4cccc(Cl)c4F)CC3)CC1)n(C)c(=O)n2C1CCC(=O)NC1=O` (stereo partly drawn) [I-187] had an IC50 of under 50 nM.
On to `COc1cc2c(cc1OC(C)C)C(c1ccc(Cl)cc1)N(c1ccc(N(C)CCCCCCCc3ccc4c(c3)n(C)c(=O)n4C3CCC(=O)NC3=O)cc1)C(=O)C2` (stereo not drawn) [I-208], for which the IC50 was over 1000 nM.
`Cn1c(=O)n(C2CCC(=O)NC2=O)c2cccc(C3CCN(Cc4ccc(NC(=O)[C@@H]5NC6(CCCCC6)[C@@]6(C(=O)Nc7cc(Cl)ccc76)[C@H]5c5cccc(Cl)c5F)cc4)CC3)c21` (stereo partly drawn) [I-115]: the IC50 is under 50 nM.
In the case of `CN(CCCCCc1ccc2c(c1)n(C)c(=O)n2C1CCC(=O)NC1=O)C[C@H]1CC[C@H](NC(=O)[C@@H]2NC3(CCC(C)(C)CC3)[C@@]3(C(=O)Nc4cc(Cl)ccc43)[C@H]2c2cccc(Cl)c2F)CC1` (stereo partly drawn) [I-66], the IC50 is under 50 nM.
The same measure, in the same setting: for `Cn1c(=O)n(C2CCC(=O)NC2=O)c2ccc(CCCCCNC(=O)c3cccc(NC(=O)[C@@H]4NC5(CCCCC5)[C@@]5(C(=O)Nc6cc(Cl)ccc65)[C@H]4c4cccc(Cl)c4F)c3)cc21` (stereo partly drawn) [I-78] the value was under 50 nM; for `Cn1c(=O)n(C2CCC(=O)NC2=O)c2ccc(CCCCCNC(=O)[C@H]3CC[C@H](N(C)C(=O)[C@@H]4NC5(CCCCC5)[C@@]5(C(=O)Nc6cc(Cl)ccc65)[C@H]4c4cccc(Cl)c4F)CC3)cc21` (stereo partly drawn) [I-105], over 1000 nM; for `CN(C(=O)c1ccc(NC(=O)[C@@H]2NC3(CCCCC3)[C@@]3(C(=O)Nc4cc(Cl)ccc43)[C@H]2c2cccc(Cl)c2F)cc1)C1CCN(Cc2cccc3c2n(C)c(=O)n3C2CCC(=O)NC2=O)CC1` (stereo partly drawn) [I-63], under 50 nM.
On the same count and under the same terms, for `Cn1c(=O)n(C2CCC(=O)NC2=O)c2ccc(C(=O)CC3CCN(C(=O)[C@H]4CC[C@H](NC(=O)[C@@H]5NC6(CCCCC6)[C@@]6(C(=O)Nc7cc(Cl)ccc76)[C@H]5c5cccc(Cl)c5F)CC4)CC3)cc21` (stereo partly drawn) [I-94] the value was under 50 nM; for `O=C1CCN(c2cnc3c(C#CC4CCN(C[C@H]5CC[C@H](NC(=O)[C@@H]6NC7(CCCCC7)[C@@]7(C(=O)Nc8cc(Cl)ccc87)[C@H]6c6cccc(Cl)c6F)CC5)CC4)cccn23)C(=O)N1` [I-150], under 50 nM; for `Cn1c(=O)n(C2CCC(=O)NC2=O)c2ccc(CCCCCOC3CCN(C(=O)c4coc([C@@H]5NC6(CCCCC6)[C@@]6(C(=O)Nc7cc(Cl)ccc76)[C@H]5c5cccc(Cl)c5F)n4)CC3)cc21` (stereo partly drawn) [I-172], over 1000 nM.
Same read-out and setting: for `C#CCCCCCCCC1N(c2ccc(C(=O)NC)cc2OC)C(=O)[C@H]2[C@H](c3cccc(Cl)c3F)[C@@](C#N)(c3ccc(Cl)cc3F)[C@H](CC(C)(C)C)N12` (stereo partly drawn) [I-127, 4-[(5S,6R,7S,7aR)-7-(3-chloro-2-fluoro-phenyl)-6-(4-chloro-2-fluoro-phenyl)-6-cyano-5-(2,2-dimethylpropyl)-3-non-8-ynyl-1-oxo-3,5,7,7a-tetrahydropyrrolo[1,2-c]imidazol-2-yl]-3-methoxy-N-methyl-benzamide] the value was over 1000 nM; for `Cn1c(=O)n(C2CCC(=O)NC2=O)c2cccc(C3CCN(C(=O)c4ccc(NC(=O)[C@@H]5NC6(CCCCC6)[C@@]6(C(=O)Nc7cc(Cl)ccc76)[C@H]5c5cccc(Cl)c5F)cc4)CC3)c21` (stereo partly drawn) [I-58], under 50 nM.
For the compound `Cn1c(=O)n(C2CCC(=O)NC2=O)c2ccc(CCCN3CCN(C[C@H]4CC[C@H](NC(=O)[C@@H]5NC6(CCC(C)(C)CC6)[C@@]6(C(=O)Nc7cc(Cl)ccc76)[C@H]5c5ccnc(Cl)c5F)CC4)CC3)cc21` (stereo partly drawn) [I-147], the IC50 was under 50 nM.
`Cn1c(=O)n(C2CCC(=O)NC2=O)c2ccc(N3CCN(C(=O)[C@H]4CC[C@H](NC(=O)[C@@H]5NC6(CCCCC6)[C@@]6(C(=O)Nc7cc(Cl)ccc76)[C@H]5c5cccc(Cl)c5F)CC4)CC3)cc21` (stereo partly drawn) [I-178]: the half-maximal inhibitory concentration (IC50) was under 50 nM.
The same measure, in the same setting: under `CCN1[C@@H](C(=O)NC23CCC(C(=O)NCCCCCc4ccc5c(c4)n(C)c(=O)n5C4CCC(=O)NC4=O)(CC2)CC3)[C@H](c2cccc(Cl)c2F)[C@]2(C(=O)Nc3cc(Cl)ccc32)C12CCCCC2` (stereo partly drawn) [I-42] stands under 50 nM; under `CC1(C)CCC2(CC1)NC(C(=O)N[C@H]1CC[C@H](CN3CCN(CCC#Cc4cccn5c(N6CCC(=O)NC6=O)cnc45)CC3)CC1)[C@H](c1ccnc(Cl)c1F)[C@]21C(=O)Nc2cc(Cl)ccc21` (stereo partly drawn) [I-203], under 50 nM.

The experiment is the same for the next values; noted with them: Homo sapiens, RS4-11, 72 h, duration 3 days.
With `COc1cc(C(=O)NCCCCCc2cccc3c2n(C)c(=O)n3C2CCC(=O)NC2=O)ccc1NC(=O)[C@@H]1N[C@@H](CC(C)(C)C)[C@](C#N)(c2ccc(Cl)cc2F)[C@H]1c1cccc(Cl)c1F` (stereo partly drawn) [I-28], the IC50 is under 50 nM.

Still in this experiment, the particulars now being: Homo sapiens, RS4-11, 96 h, duration 4 days.
As for `CC(C)[C@@H](CS(=O)(=O)C(C)C)N1C(=O)[C@@](C)(CC(=O)Nc2ccc(C(=O)NCCOCCOCCOCCNc3cccc4c3C(=O)N(C3CCC(=O)NC3=O)C4=O)cc2)C[C@H](c2cccc(Cl)c2)[C@H]1c1ccc(Cl)cc1` (stereo partly drawn) [I-6, 4-[[2-[(3R,5R,6S)-5-(3-chlorophenyl)-6-(4-chlorophenyl)-1-[(1S)-1-(isopropylsulfonylmethyl)-2-methyl-propyl]-3-methyl-2-oxo-3-piperidyl]acetyl]amino]-N-[2-[2-[2-[2-[[2-(2,6-dioxo-3-piperidyl)-1,3-dioxo-isoindolin-4-yl]amino]ethoxy]ethoxy]ethoxy]ethyl]benzamide], the IC50 lay in the range of 100 to 500 nM.
